Reference: PubChem BioAssay (NCI)
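Interpolation was linear, between the two tested concentrations surrounding the appropriate level; five concentrations were tested over 48 hours in 96-well plates. TGI: total growth inhibition.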

Experiments:
Assay in all cases: DTP human tumour cell line panel, 48 h
[1] = test system: HCC-2998 colon
[2] = test system: KM12 colon
[3] = test system: LOX IMVI melanoma
[4] = test system: MCF7 breast
[5] = test system: MDA-MB-435
[6] = test system: MOLT-4 leukemia
[7] = test system: NCI-H226 lung
[8] = test system: NCI-H23 lung
[9] = test system: SF-295 CNS
[10] = test system: SF-539 CNS
[11] = test system: SNB-19 CNS
[12] = test system: SNB-75 CNS
[13] = test system: TK-10 renal
[14] = test system: UACC-257 melanoma

SMILES | TGI [1] | TGI [2] | TGI [3] | TGI [4] | TGI [5] | TGI [6] | TGI [7] | TGI [8] | TGI [9] | TGI [10] | TGI [11] | TGI [12] | TGI [13] | TGI [14]
O=c1[nH]nc(Cc2ccccc2)[nH]1 | > 100 µM | > 100 µM | > 100 µM | > 100 µM | > 100 µM | > 100 µM | > 100 µM | > 100 µM | > 100 µM | > 100 µM | > 100 µM | > 100 µM | > 100 µM | > 100 µM
O=C(O)[C@@H]1CSCN1C(=O)[C@@H]1CCC(=S)N1 | > 100 µM | > 100 µM | > 100 µM | > 100 µM | > 100 µM | > 100 µM | > 100 µM | > 100 µM | > 100 µM | > 100 µM | > 100 µM | > 100 µM | > 100 µM | > 100 µM
O=C(O)Cc1cccc2c1OC(c1ccccc1)C(Cl)(C(=O)c1ccccc1)C2=O (stereo not drawn) | 26.1 µM | 50.6 µM | 29.2 µM | 24.5 µM | 30.6 µM | 62.3 µM | 80.9 µM | 33.1 µM | 66.3 µM | 84.3 µM | > 100 µM | 40.9 µM | 37.2 µM | 32 µM
COC(=O)C(COC(C)=O)NC(=O)/C=C/c1ccc(O)c(OC(C)=O)c1 (stereo not drawn) | > 100 µM | > 100 µM | > 100 µM | > 100 µM | > 100 µM | > 100 µM | > 100 µM | > 100 µM | > 100 µM | 53.9 µM | > 100 µM | > 100 µM | > 100 µM | > 100 µM
Clc1ccc(-c2c(C3=NCCCN3)nnn2-c2ccc(Cl)cc2)cc1 | 38.3 µM | > 77.5 µM | 53 µM | > 55.8 µM | 35.9 µM | 60.9 µM | > 100 µM | > 100 µM | > 77.2 µM | 67.5 µM | > 85.3 µM | > 72.2 µM | > 77.5 µM | 44.1 µM
Cc1nn(C(=O)Cc2ccccc2)c2c1C(c1ccc(N(C)C)cc1)SC(N)=N2 (stereo not drawn) | > 100 µM | > 100 µM | > 100 µM | > 100 µM | > 100 µM | > 100 µM | > 100 µM | > 100 µM | > 100 µM | > 100 µM | > 100 µM | 32.9 µM | > 100 µM | > 100 µM
Cc1cc(=O)n2nc(CN3CCCCC3)sc2n1 | > 100 µM | > 100 µM | > 100 µM | > 100 µM | > 100 µM | > 100 µM | > 100 µM | > 100 µM | > 100 µM | > 100 µM | > 100 µM | > 100 µM | > 100 µM | > 100 µM
